# Results as given in patent US20110098177A1, “METHODS AND COMPOSITIONS OF PLANT MICRONUTRIENTS” (NOVUS INTERNATIONAL INC., priority 2006, published 2011).
# Tests used:
# Assay type in all cases: in vivo
# Aristotle bell pepper = settings: in vivo
# Experimental: (§1) The following experiments were performed in a green house during the fall of 2007 at GCREC, Balm, University of Florida. Fifteen products, at 3 different application rates were examined. The plot size was 2-gallon pots. Crop set-up, procedures and variables were as follows.
# (§2) Transplants of ‘Florida-47’ tomato and ‘Aristotle’ bell pepper plants in the 4-true leaf stage (about 6 inches tall) were planted in 2-gal pots on Aug. 27, 2007. Pots were filled with a commercially available planting medium. This medium was selected based on the mineral composition of the products to be applied without providing significant nutritional inputs to the crops. Irrigation was provided with drip lines delivering between 0.50 and 0.33 gal/day/pot for tomato and bell pepper, respectively, and the crops were irrigated three times per day. No foliar pesticides were necessary.
# (§3) There were four control treatments corresponding to each target micronutrient in which non-Fe, non-Mn, non-Zn or non-Cu pots received all other essential nutrients under non-limiting conditions.
# (§4) Treatments were applied at three rates (high, medium and low) obtained from the estimated concentration of Zn, Fe, Cu, and Mn foliarly-applied in tomato and bell pepper in field situations (Table 1). Products were weighed and dissolved in 200 ml of deionized water with a non-ionic surfactant and applied to the newly-matured open leaves of each crop at 3 and 7 weeks after transplant (WAT). Treated pots were isolated during application to avoid cross-contamination of other treatments.
# (§5) Medium nutrient concentration was determined 1 week before treatment. The mineral composition of the medium was 26.8 ppm NH4—N, 49 ppm NO3—N, 15.8 ppm P, 91.2 ppm K, 82.3 ppm Ca, 58.2 ppm Mg, 23.9 ppm Na, 125.6 ppm S, 1.33 ppm Fe, 0.39 ppm Mn, 0.35 ppm Zn, 0.05 pp, Cu, 0.04 ppm B, 0 ppm Mo, 0.73 ppm Al, and 12.1 ppm Si. The pH of the medium was 5.36 and the electric conductivity was 1.38 mS/cm. The foliar tissue analysis was performed at 6 WAT and the concentration of N, P, K, Mg, Ca, S, B, Zn, Mn, Fe, and Cu was determined by a commercial laboratory. Plant toxicity was determined at 4 WAT by using a 0-10 visual scale, where 0=no visible damage and 10=total plant death. Marketable fruit weight was collected 2 times in bell pepper and 4 times in tomato following USDA standards.
# (§6) Data were analyzed using a general linear model, and means were separated using orthogonal contrasts at the 5% significance level.
# Florida-47 tomato = settings: in vivo
# Experimental: as §1, §2, §3, §4, §5, §6
# Tygress tomato plants [1] = experiment: Foliar nutrient concentration at 6 WAT, open-field tomato (Examples 7-10)
# Experimental: (§7) The following experiments were performed in open-field plots during the spring of 2008 at GCREC, Balm, University of Florida. Four products delivering Zn (BIOX-Z), Mn (BIOX-M), Cu (BIOX-Cu), and Fe (BIOX-Fe) were compared to other micronutrient supplement formulations in tomato and bell pepper plants.
# (§8) The plot sizes for the tomato plants were 30-ft plots (15 plants per plot) and 15-ft plots were used for the bell pepper plants (30 plants per plot). Crop set-up, procedures and variables were as follows.
# (§9) Transplants of ‘Tygress’ tomato plants and ‘Patriot’ bell pepper plants in the 4-true leaf stage (about 6 inches tall) were planted in raised beds in open-field plots. The cross-section of each raised bed was 28 inches wide at the top, 32 inches wide at the base, and 8 inches tall. Irrigation and non-micronutrient fertilizer were provided daily through two drip lines per bed (0.45 gal/100 ft bed/min) at recommended rates for tomato and bell pepper production in Florida. […] The height of the plants for each of the treatment groups was measured at 3 weeks after transplantation (WAT), just prior to treatment with the experimental foliar fertilizers.
# (§10) All foliar fertilizers except BIOX-CM were applied to the various treatment groups at 3 weeks after transplantation (WAT) and again at 5 WAT. The BIOX-CM treatment was applied at 4 and 5 WAT. The working water volume was 60 gal/acre and a non-ionic surfactant (Ad-Spray 80) was added in the amount of 2 pints/100 gal water. All plots were sprayed with sprayers pressurized at 25 psi and the canopies of both crops were covered with the micronutrient solutions. Treated plots were isolated during foliar fertilizer application to avoid the cross-contamination of other treatments on adjoining plots.
# (§11) Leaf samples were collected from the most recent mature leaves from each plant at 6 WAT (2 weeks after initial treatment). Foliar tissue analysis was performed by a commercial laboratory to determine the concentration of N, P, K, Mg, Ca, B, Zn, Mn, Fe, and Cu. Tomato marketable fruit weights were collected at 10 and 12 WAT, and the fruits were graded according to USDA standards. Pepper marketable fruit weights were determined beginning at 5 WAT over 5 weekly harvests. Fruit mineral analysis (N, P, K, Mg, Ca, B, Zn, Mn, Fe, and Cu) was performed on samples from the tomato harvest.
# (§12) The experimental design was a randomized complete block design with 5 replications for each treatment. All comparison data were analyzed using a general linear model and the means of each treatment were separated with a Fisher's protected LSD test at the 5% significance level.
# [2] = system: Patriot bell pepper plants; experiment: Foliar nutrient concentration at 6 WAT, open-field bell pepper (Examples 7-10)
# Experimental: as §7, §8, §9, §10, §11, §12
# Tygress tomato plants [3] = experiment: Marketable yield, open-field tomato (Examples 7-10)
# Experimental: as §7, §8, §9, §10, §11, §12
# [4] = system: Patriot bell pepper plants; experiment: Marketable yield, open-field bell pepper (Examples 7-10)
# Experimental: as §7, §8, §9, §10, §11, §12
# Tygress tomato plants [5] = experiment: Nutrient concentration of tomato fruits at 10 WAT, open field (Examples 7-10)
# Experimental: as §7, §8, §9, §10, §11, §12
# [6] = 6 WAT, open field, product rate as Table 17
# [7] = open field, lb/acre/season: BIOX-Z 1.3, Cu 6.7, M 23.0, Fe 3.2, INC 4.0, INZ 0.6, CM 10.0, GZ 1.0, GF 4.0, EDZ 1.4, EDM 23.0
# [8] = 10 WAT, open field, product rate as Table 17
compound,measurement,setting,value
"NCC(=O)[O-].NCC(=O)[O-].[Zn+2] [BIOX-GZ, zinc glycinate]",Pepper toxicity,Aristotle bell pepper,0
same,Tomato toxicity,Florida-47 tomato,0
same,Foliar B concentration of tomato plants,Tygress tomato plants [1]; in vivo,44 ppm
same,Foliar Ca concentration of tomato plants,Tygress tomato plants [1]; in vivo,1.8%
same,Foliar Cu concentration of tomato plants,Tygress tomato plants [1]; in vivo,482 ppm
same,Foliar Fe concentration of tomato plants,Tygress tomato plants [1]; in vivo,94 ppm
same,Foliar K concentration of tomato plants,Tygress tomato plants [1]; in vivo,5.0%
same,Foliar Mg concentration of tomato plants,Tygress tomato plants [1]; in vivo,0.61%
same,Foliar Mn concentration of tomato plants,Tygress tomato plants [1]; in vivo,278 ppm
same,Foliar N concentration of tomato plants,Tygress tomato plants [1]; in vivo,4.6%
same,Foliar P concentration of tomato plants,Tygress tomato plants [1]; in vivo,0.22%
same,Foliar Zn concentration of tomato plants,Tygress tomato plants [1]; in vivo,369 b ppm
same,Foliar B concentration of bell pepper plants,[2]; in vivo,59 ppm
same,Foliar Ca concentration of bell pepper plants,[2]; in vivo,4.2%
same,Foliar Cu concentration of bell pepper plants,[2]; in vivo,429 ppm
same,Foliar Fe concentration of bell pepper plants,[2]; in vivo,118 ppm
same,Foliar K concentration of bell pepper plants,[2]; in vivo,3.4%
same,Foliar Mg concentration of bell pepper plants,[2]; in vivo,0.49%
same,Foliar Mn concentration of bell pepper plants,[2]; in vivo,282 ppm
same,Foliar N concentration of bell pepper plants,[2]; in vivo,4.4%
same,Foliar P concentration of bell pepper plants,[2]; in vivo,0.24%
same,Foliar Zn concentration of bell pepper plants,[2]; in vivo,145 a ppm
same,"Foliar Zn concentration of bell pepper plants compared to control, statement",[2]; in vivo,significantly higher foliar concentration of Zn
same,"Marketable yield, Tomato",Tygress tomato plants [3]; in vivo,16.8 ton/acre
same,"Tomato marketable yield compared to control, statement",Tygress tomato plants [3]; in vivo,significantly higher than the control tomato harvest
same,"Marketable yield, Bell Pepper",[4]; in vivo,6.3 ton/acre
same,B concentration of tomato fruits,Tygress tomato plants [5]; in vivo,23 ppm
same,Ca concentration of tomato fruits,Tygress tomato plants [5]; in vivo,0.2%
same,Cu concentration of tomato fruits,Tygress tomato plants [5]; in vivo,23 ppm
same,Fe concentration of tomato fruits,Tygress tomato plants [5]; in vivo,87 ppm
same,K concentration of tomato fruits,Tygress tomato plants [5]; in vivo,7.8%
same,Mg concentration of tomato fruits,Tygress tomato plants [5]; in vivo,0.37%
same,Mn concentration of tomato fruits,Tygress tomato plants [5]; in vivo,43 ppm
same,N concentration of tomato fruits,Tygress tomato plants [5]; in vivo,4.3%
same,P concentration of tomato fruits,Tygress tomato plants [5]; in vivo,0.61%
same,Zn concentration of tomato fruits,Tygress tomato plants [5]; in vivo,379 ppm
iron glycinate [BIOX-GF],Pepper toxicity,Aristotle bell pepper,0
same,Tomato toxicity,Florida-47 tomato,0
same,Foliar B concentration of tomato plants,Tygress tomato plants [1]; in vivo,21 ppm
same,Foliar Ca concentration of tomato plants,Tygress tomato plants [1]; in vivo,0.2%
same,Foliar Cu concentration of tomato plants,Tygress tomato plants [1]; in vivo,22 ppm
same,Foliar Fe concentration of tomato plants,Tygress tomato plants [1]; in vivo,85 ppm
same,Foliar K concentration of tomato plants,Tygress tomato plants [1]; in vivo,8.5%
same,Foliar Mg concentration of tomato plants,Tygress tomato plants [1]; in vivo,0.38%
same,Foliar Mn concentration of tomato plants,Tygress tomato plants [1]; in vivo,42 ppm
same,Foliar N concentration of tomato plants,Tygress tomato plants [1]; in vivo,4.3%
same,Foliar P concentration of tomato plants,Tygress tomato plants [1]; in vivo,0.71%
same,Foliar Zn concentration of tomato plants,Tygress tomato plants [1]; in vivo,332 ppm
same,Foliar nutrient concentration: B,[2]; in vivo,43 ppm
same,Foliar nutrient concentration: Ca,[2]; in vivo,1.8%
same,Foliar nutrient concentration: Cu,[2]; in vivo,453 ppm
same,Foliar nutrient concentration: Fe,[2]; in vivo,305 ppm
same,Foliar nutrient concentration: K,[2]; in vivo,5.7%
same,Foliar nutrient concentration: Mg,[2]; in vivo,0.58%
same,Foliar nutrient concentration: Mn,[2]; in vivo,266 ppm
same,Foliar nutrient concentration: N,[2]; in vivo,5.0%
same,Foliar nutrient concentration: P,[2]; in vivo,0.21%
same,Foliar nutrient concentration: Zn,[2]; in vivo,322 ppm
same,"Marketable yield, Tomato",Tygress tomato plants [3]; in vivo,18.5 a ton/acre
same,"Tomato marketable yield compared to control, statement",Tygress tomato plants [3]; in vivo,significantly higher tomato marketable yield compared to control
same,"Marketable yield, Bell Pepper",[4]; in vivo,7.0 ton/acre
same,Nutrient concentration of tomato fruits: B,Tygress tomato plants [5]; in vivo,21 ppm
same,Nutrient concentration of tomato fruits: Ca,Tygress tomato plants [5]; in vivo,0.2%
same,Nutrient concentration of tomato fruits: Cu,Tygress tomato plants [5]; in vivo,22 ppm
same,Nutrient concentration of tomato fruits: Fe,Tygress tomato plants [5]; in vivo,85 ppm
same,Nutrient concentration of tomato fruits: K,Tygress tomato plants [5]; in vivo,8.5%
same,Nutrient concentration of tomato fruits: Mg,Tygress tomato plants [5]; in vivo,0.38%
same,Nutrient concentration of tomato fruits: Mn,Tygress tomato plants [5]; in vivo,42 ppm
same,Nutrient concentration of tomato fruits: N,Tygress tomato plants [5]; in vivo,4.3%
same,Nutrient concentration of tomato fruits: P,Tygress tomato plants [5]; in vivo,0.71%
same,Nutrient concentration of tomato fruits: Zn,Tygress tomato plants [5]; in vivo,332 ppm
manganese citrate [BIOX-CM],"Foliar concentration of Mn of tomato plants, statement","Tygress tomato plants [1]; 6 WAT, open field",significantly higher foliar concentration of Mn compared to control
same,Foliar B concentration of tomato plants,Tygress tomato plants [1]; [6],43 ppm
same,Foliar Ca concentration of tomato plants,Tygress tomato plants [1]; [6],1.8%
same,Foliar Cu concentration of tomato plants,Tygress tomato plants [1]; [6],326 ppm
same,Foliar Fe concentration of tomato plants,Tygress tomato plants [1]; [6],85 ppm
same,Foliar K concentration of tomato plants,Tygress tomato plants [1]; [6],5.0 b %
same,Foliar Mg concentration of tomato plants,Tygress tomato plants [1]; [6],0.66%
same,Foliar Mn concentration of tomato plants,Tygress tomato plants [1]; [6],272 b ppm
same,Foliar N concentration of tomato plants,Tygress tomato plants [1]; [6],5.1%
same,Foliar P concentration of tomato plants,Tygress tomato plants [1]; [6],0.24 a %
same,Foliar Zn concentration of tomato plants,Tygress tomato plants [1]; [6],242 b ppm
same,Foliar B concentration of bell pepper plants,[2]; [6],63 ppm
same,Foliar Ca concentration of bell pepper plants,[2]; [6],4.2%
same,Foliar Cu concentration of bell pepper plants,[2]; [6],364 ppm
same,Foliar Fe concentration of bell pepper plants,[2]; [6],121 ppm
same,Foliar K concentration of bell pepper plants,[2]; [6],3.6%
same,Foliar Mg concentration of bell pepper plants,[2]; [6],0.47%
same,Foliar Mn concentration of bell pepper plants,[2]; [6],594 ppm
same,Foliar N concentration of bell pepper plants,[2]; [6],4.3%
same,Foliar P concentration of bell pepper plants,[2]; [6],0.23%
same,Foliar Zn concentration of bell pepper plants,[2]; [6],44 ppm
same,"Marketable yield, Tomato",Tygress tomato plants [3]; [7],13.9 b ton/acre
same,"Marketable yield, Bell Pepper",[4]; [7],8.0 ton/acre
same,B concentration of tomato fruits,Tygress tomato plants [5]; [8],22 ppm
same,Ca concentration of tomato fruits,Tygress tomato plants [5]; [8],0.2%
same,Cu concentration of tomato fruits,Tygress tomato plants [5]; [8],21 b ppm
same,Fe concentration of tomato fruits,Tygress tomato plants [5]; [8],73 b ppm
same,K concentration of tomato fruits,Tygress tomato plants [5]; [8],7.9%
same,Mg concentration of tomato fruits,Tygress tomato plants [5]; [8],0.37%
same,Mn concentration of tomato fruits,Tygress tomato plants [5]; [8],40 b ppm
same,N concentration of tomato fruits,Tygress tomato plants [5]; [8],4.2%
same,P concentration of tomato fruits,Tygress tomato plants [5]; [8],0.57%
same,Zn concentration of tomato fruits,Tygress tomato plants [5]; [8],217 b ppm
